Test [1] relates to Spermatozoa. The test can be described thus: Spermicidal activity against bovine spermatozoa at 800 ug/mL assessed as time required for sperm death. It is filed as functional, Bos taurus.
The subject of test [2] is Spermatozoa. The test can be described thus: Spermicidal activity against horse sperm at 800 ug/mL assessed as time required for sperm death. It is filed as functional, Equus caballus.
The test system of test [3] is Spermatozoa. The test can be described thus: Spermicidal activity against rat sperm at 200 ug/mL assessed as time required for sperm death. It is filed as functional.
The test system of test [4] is Spermatozoa. Description: Spermicidal activity against boar sperm at 200 ug/mL assessed as time required for sperm death. It is filed as functional, Sus scrofa.
The test system of test [5] is Spermatozoa. The test can be described thus: Spermicidal activity against boar sperm at 50 ug/mL assessed as time required for sperm death. The note with it: Sus scrofa. The class given is functional, cell-based.

The structures appear in SMILES notation. The source made the active and inactive calls. The calls are words filed in the database; no cut-off is given here.

Take `C/C=C(\NC(=O)C(=O)CC)C(=O)N1CCC[C@H]1C(=O)N[C@@H](C)C(=O)N/C(=C\C)C(=O)N1CCC[C@H]1C(=O)N[C@@H](C)C(=O)N[C@H](C(=O)N[C@H](C)C(=O)N[C@H](C(=O)N[C@@H](CC(C)C)C(=O)N[C@H](C)C(=O)N[C@@H](C)C(=O)N[C@@H](Cc1ccc(O)cc1)C(=O)N[C@H](C(=O)N[C@@H]1CSC[C@@H](C(=O)N2CCC[C@H]2C(=O)N[C@H]2C(=O)N[C@@H]([C@@H](C)O)C(=O)N[C@@H](CCCCN)C(=O)N[C@H](C(=O)N[C@H]3C(=O)N[C@@H](CCCNC(=N)N)C(=O)N[C@@H](C)C(=O)N[C@H](C(=O)O)CSC3C)CSC2C)NC(=O)[C@H]([C@@H](C)O)NC(=O)[C@H](CC(N)=O)NC(=O)[C@H]([C@@H](C)O)NC1=O)[C@@H](C)CC)[C@@H](C)CC)[C@@H](C)CC` (stereo not given in full): the Time in test [1] stood at 2.5 min; in test [2], 4.8 min; in test [3] it was 2 min; in test [4], 1.8 min.

For `C/C=C(\NC(=O)C(=O)CC)C(=O)N1CCC[C@H]1C(=O)N[C@@H](C)C(=O)N/C(=C\C)C(=O)N1CCC[C@H]1C(=O)N[C@@H](C)C(=O)N[C@H](C(=O)N[C@H](C)C(=O)N[C@H](C(=O)N[C@@H](CC(C)C)C(=O)N[C@H](C)C(=O)N[C@@H](C)C(=O)N[C@@H](Cc1ccc(O)cc1)C(=O)N[C@H](C(=O)N[C@H]1CSC[C@H](C(=O)N2CCC[C@H]2C(=O)N[C@H]2C(=O)N[C@@H]([C@@H](C)O)C(=O)N[C@@H](CCCCN)C(=O)N[C@H](C(=O)N[C@H]3C(=O)N[C@@H](CCCNC(=N)N)C(=O)N[C@@H](C)C(=O)N[C@@H](C(=O)O)CSC3C)CSC2C)NC(=O)[C@H]([C@@H](C)O)NC(=O)[C@H](CC(N)=O)NC(=O)[C@H]([C@@H](C)O)NC1=O)[C@@H](C)CC)[C@@H](C)CC)[C@@H](C)CC` (stereo not given in full), the outcome in test [5] was Active.

As to `C/C=C(\NC(=O)[C@H](CC(N)=O)NC(=O)/C(=C\C)NC(=O)[C@H](C)NC(=O)[C@H](C)N)C(=O)N[C@@H](Cc1ccccc1)C(=O)N[C@H](C)C(=O)N[C@@H](CC(C)C)C(=O)N[C@@H]1CSC[C@H](C(=O)N[C@H]2C(=O)N[C@@H](CC(C)C)C(=O)N[C@H]3C(=O)N[C@@H](Cc4cnc[nH]4)C(=O)N[C@@H](CCC(=O)O)C(=O)N[C@@H](CCS[C@H]2C)C(=O)N[C@@H](CCSC)C(=O)N[C@@H](C)C(=O)N[C@@H](Cc2c[nH]c4ccccc24)C(=O)N[C@H](C(=O)N[C@@H](CCCCN)C(=O)O)CSC3C)NC(=O)[C@H](Cc2c[nH]c3ccccc23)NC(=O)[C@H](C)NC(=O)CNC(=O)[C@H](CC(N)=O)NC(=O)[C@H](CC(N)=O)NC(=O)CNC(=O)[C@H](Cc2c[nH]c3ccccc23)NC(=O)[C@H](Cc2ccc(O)cc2)NC(=O)[C@H](CC(=O)O)NC1=O` (stereo not given in full), the result in test [5] was Active.

Regarding `C/C=C(\NC(=O)[C@H](CC(N)=O)NC(=O)/C(=C/C)NC(=O)[C@H]1CSC[C@H](N)C(=O)N1)C(=O)N[C@@H](Cc1ccccc1)C(=O)N[C@H](C)C(=O)N[C@@H](CC(C)C)C(=O)N[C@@H]1CSC[C@@H](C(=O)N[C@H]2C(=O)N[C@@H](CC(C)C)C(=O)N[C@H]3C(=O)N[C@@H](Cc4cnc[nH]4)C(=O)N[C@@H](CCC(=O)O)C(=O)N[C@@H](CS[C@H]2C)C(=O)N[C@@H](CCSC)C(=O)N[C@@H](C)C(=O)N[C@@H](Cc2c[nH]c4ccccc24)C(=O)N[C@H](C(=O)N[C@@H](CCCCN)C(=O)O)CS[C@H]3C)NC(=O)[C@H](Cc2c[nH]c3ccccc23)NC(=O)[C@H](C)NC(=O)CNC(=O)[C@H](CC(N)=O)NC(=O)[C@H](CC(N)=O)NC(=O)CNC(=O)[C@H](Cc2c[nH]c3ccccc23)NC(=O)[C@H](Cc2ccc(O)cc2)NC(=O)[C@H](CC(=O)O)NC1=O`, the Time is 16.6 min in test [1], 12.7 min in test [2], 2.3 min in test [3] and 2.5 min in test [4].

The values above are taken from ChEMBL document CHEMBL1144860, “Spermicidal bacteriocins: lacticin 3147 and subtilosin A” (2008).
